What was measured:
human recombinant HDAC1 = molecular target: T1, human recombinant HDAC1 (Homo sapiens, UniProt Q13547); test: HDAC1 enzyme activity inhibition assay (HDAC Fluorimetric Drug Discovery Kit); type: biochemical; conditions: 0.3 μg enzyme, 10 μM substrate, 30° C., 60 minutes
T1 construct: purchased Enzo Life Science BML-SE456
Description: In order to examine the HDAC6 selectivity of the compounds of formula I of the present invention by HDAC1 and HDAC6 enzymatic activity inhibition assays, an experiment was performed using a conventional substance as a control.
HDAC enzyme activity was measured using a HDAC Fluorimetric Drug Discovery Kit (BML-AK511, 516, Enzo Life Science). For the HDAC1 enzyme activity test, human recombinant HDAC1 (BML-SE456) was used as an enzyme source, and Fluor de Lys®-“SIRT1 (BNL-KI177) was used as a substrate. A 5-fold dilution of the compound was seeded into a 96-well plate, and then 0.3 μg of the enzyme and 10 μM of the substrate were added to each well of the plate and allowed to react at 30° C. for 60 minutes. Then, Fluor de Lys®-Developer II (BML-KI176) was added thereto and allowed to react for 30 minutes, after which the fluorescence value (Ex 360, Em 460) was measured using a multi-plate reader (Flexstation 3, Molecular Device). The HDAC6 enzyme was tested using human recombinant HDAC6 (382180) (Calbiochem) according to the same protocol as the HDAC1 enzyme activity test method. Based on the resulting values, each IC50 value was calculated using GraphPad Prism4.0 program.

human recombinant HDAC6 = molecular target: T2, human recombinant HDAC6 (Homo sapiens, UniProt Q9UBN7); test: HDAC6 enzyme activity inhibition assay (HDAC Fluorimetric Drug Discovery Kit); type: biochemical; conditions: for HDAC6 selectivity (fold): HDAC1 vs HDAC6; for IC50: same protocol as the HDAC1 enzyme activity test
T2 construct: purchased Calbiochem 382180
T2 sequence (Q9UBN7 1-1215): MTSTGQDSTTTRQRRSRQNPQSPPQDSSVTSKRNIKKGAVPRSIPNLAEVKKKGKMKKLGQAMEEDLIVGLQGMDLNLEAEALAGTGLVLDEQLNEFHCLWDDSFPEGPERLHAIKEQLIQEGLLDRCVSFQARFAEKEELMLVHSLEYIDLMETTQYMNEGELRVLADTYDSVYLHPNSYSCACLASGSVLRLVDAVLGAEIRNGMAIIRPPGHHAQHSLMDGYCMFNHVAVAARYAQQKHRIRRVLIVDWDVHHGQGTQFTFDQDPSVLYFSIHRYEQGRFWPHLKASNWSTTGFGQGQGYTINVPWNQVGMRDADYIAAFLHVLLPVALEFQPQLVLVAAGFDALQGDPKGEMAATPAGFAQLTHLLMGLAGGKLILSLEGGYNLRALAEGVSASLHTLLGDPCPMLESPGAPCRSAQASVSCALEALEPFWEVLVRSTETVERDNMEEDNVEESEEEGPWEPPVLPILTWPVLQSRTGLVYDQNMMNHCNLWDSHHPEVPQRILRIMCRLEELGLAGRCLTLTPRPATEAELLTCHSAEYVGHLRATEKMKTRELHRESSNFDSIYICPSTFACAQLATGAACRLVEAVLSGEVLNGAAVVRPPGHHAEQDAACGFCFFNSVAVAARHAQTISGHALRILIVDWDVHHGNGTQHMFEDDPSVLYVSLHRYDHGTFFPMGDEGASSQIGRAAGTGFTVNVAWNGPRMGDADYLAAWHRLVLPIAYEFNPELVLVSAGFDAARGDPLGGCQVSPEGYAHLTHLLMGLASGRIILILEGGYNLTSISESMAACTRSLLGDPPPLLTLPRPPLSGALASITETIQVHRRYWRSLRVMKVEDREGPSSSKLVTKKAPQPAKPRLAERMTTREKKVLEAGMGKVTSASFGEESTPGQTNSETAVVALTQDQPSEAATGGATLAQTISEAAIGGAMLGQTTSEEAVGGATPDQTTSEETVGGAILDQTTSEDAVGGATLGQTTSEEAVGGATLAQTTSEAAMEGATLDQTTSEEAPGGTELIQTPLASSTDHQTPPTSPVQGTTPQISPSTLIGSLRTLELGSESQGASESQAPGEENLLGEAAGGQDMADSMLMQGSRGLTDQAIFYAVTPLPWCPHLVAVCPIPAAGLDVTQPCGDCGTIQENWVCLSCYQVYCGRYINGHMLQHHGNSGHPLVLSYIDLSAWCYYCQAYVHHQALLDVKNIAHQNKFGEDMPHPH
Outline: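 Fluorescence (Ex 360, Em 460) after 30 min developer step; IC50 from dose-response. Reaction: 0.3 μg recombinant enzyme, 10 μM Fluor de Lys-SIRT1 substrate, 5-fold compound dilutions, 60 min at 30° C. Same protocol for both isoforms.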

T1 sequence (Q13547 whole entry): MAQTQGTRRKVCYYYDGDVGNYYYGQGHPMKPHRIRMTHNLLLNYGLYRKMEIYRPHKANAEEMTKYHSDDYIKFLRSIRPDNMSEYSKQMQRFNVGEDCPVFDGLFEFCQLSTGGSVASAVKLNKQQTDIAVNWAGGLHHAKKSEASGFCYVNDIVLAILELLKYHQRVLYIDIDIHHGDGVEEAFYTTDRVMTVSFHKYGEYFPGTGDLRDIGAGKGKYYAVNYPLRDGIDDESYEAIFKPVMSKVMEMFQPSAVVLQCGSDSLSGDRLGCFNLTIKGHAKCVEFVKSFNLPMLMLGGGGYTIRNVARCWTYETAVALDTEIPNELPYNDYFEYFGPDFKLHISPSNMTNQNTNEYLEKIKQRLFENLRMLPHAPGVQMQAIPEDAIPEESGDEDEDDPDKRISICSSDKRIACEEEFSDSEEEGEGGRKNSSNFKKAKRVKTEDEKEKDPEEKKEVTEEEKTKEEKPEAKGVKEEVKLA

Compound	IC50 (human recombinant HDAC1)	HDAC6 selectivity (fold) (human recombinant HDAC6)	IC50 (human recombinant HDAC6)
CS(=O)(=O)N(Cc1cnc(-c2nnc(C(F)F)o2)cn1)c1ccccc1 [Compound 11518, N-((5-(5-(difluoromethyl)-1,3,4-oxadiazol-2-yl)pyrazin-2-yl)methyl)-N-phenylmethanesulfonamide]	39800 nM	586 fold	68 nM
CCS(=O)(=O)N(Cc1ccc(-c2nnc(C(F)(F)F)o2)cn1)c1ccc(F)c(Cl)c1 [Compound 11429, N-(3-chloro-4-fluorophenyl)-N-((5-(5-(trifluoromethyl)-1,3,4-oxadiazol-2-yl)pyridin-2-yl)methyl)ethanesulfonamide]	18700 nM	288 fold	65 nM
NC(=O)[C@@H]1CCCN1CCS(=O)(=O)N(Cc1ccc(-c2nnc(C(F)F)o2)cn1)c1ccccc1 [Compound 11847, (S)-1-(2-(N-((5-(5-(difluoromethyl)-1,3,4-oxadiazol-2-yl)pyridin-2-yl)methyl)-N-phenylsulfamoyl)ethyl)pyrrolidine-2-carboxamide]	24500 nM	445 fold	55.1 nM
CCS(=O)(=O)N(Cc1ccc(-c2nnc(C(F)F)o2)cn1)c1cc(C)cc(Cl)c1 [Compound 11508, N-(3-chloro-5-methylphenyl)-N-((5-(5-(difluoromethyl)-1,3,4-oxadiazol-2-yl)pyridin-2-yl)methyl)ethanesulfonamide]	49600 nM	2155 fold	23 nM
CCS(=O)(=O)N(Cc1ccc(-c2nnc(C(F)F)o2)cn1)c1ccc(Cl)c(C)c1 [Compound 11504, N-(4-chloro-3-methylphenyl)-N-((5-(5-(difluoromethyl)-1,3,4-oxadiazol-2-yl)pyridin-2-yl)methyl)ethanesulfonamide]	86200 nM	4790 fold	18 nM
CC(=O)N1CC(N2CCC(S(=O)(=O)N(Cc3ccc(-c4nnc(C(F)F)o4)cn3)c3ccc(F)c(Cl)c3)CC2)C1 [Compound 11502, 1-(1-acetylazetidin-3-yl)-N-(3-chloro-4-fluorophenyl)-N-((5-(5-(difluoromethyl)-1,3,4-oxadiazol-2-yl)pyridin-2-yl)methyl)piperidine-4-sulfonamide]	78100 nM	5579 fold	14 nM
CS(=O)(=O)N(Cc1ccc(-c2nnc(C(F)(F)F)o2)cc1)c1cccnc1 [Compound 11088, N-(pyridin-3-yl)-N-(4-(5-(trifluoromethyl)-1,3,4-oxadiazol-2-yl)benzyl)methanesulfonamide]	51400 nM	404 fold	127 nM
Cc1cccc(N(Cc2ccc(-c3nnc(C(F)F)o3)cc2)S(=O)(=O)C2CCN([C@H]3CC[C@@H](F)CC3)CC2)c1 [Compound 11696, N-(4-(5-(difluoromethyl)-1,3,4-oxadiazol-2-yl)benzyl)-1-((1s,4s)-4-fluorocyclohexyl)-N-(m-tolyl)piperidine-4-sulfonamide]	51400 nM	289 fold	178 nM
CCS(=O)(=O)N(Cc1ccc(-c2nnc(C(F)F)o2)cc1F)c1ccc2cnn(C)c2c1 [Compound 11521, N-(4-(5-(difluoromethyl)-1,3,4-oxadiazol-2-yl)-2-fluorobenzyl)-N-(1-methyl-1H-indazol-6-yl)ethanesulfonamide]	43300 nM	2407 fold	18 nM
Cc1cccc(N(Cc2ccc(-c3nnc(C(F)F)o3)cn2)S(=O)(=O)C2CCN([C@H]3CC[C@H](F)CC3)CC2)c1 [Compound 11688, N-((5-(5-(difluoromethyl)-1,3,4-oxadiazol-2-yl)pyridin-2-yl)methyl)-1-((1r,4r)-4-fluorocyclohexyl)-N-(m-tolyl)piperidine-4-sulfonamide]	20200 nM	423 fold	47.7 nM
O=S(=O)(CCN1CCCC1)N(Cc1ccc(-c2nnc(C(F)F)o2)cc1F)c1ccc(F)c(Cl)c1 [Compound 11514, N-(3-chloro-4-fluorophenyl)-N-(4-(5-(difluoromethyl)-1,3,4-oxadiazol-2-yl)-2-fluorobenzyl)-2-(pyrrolidin-1-yl)ethane-1-sulfonamide]	40300 nM	938 fold	43 nM
CS(=O)(=O)N(Cc1ccc(-c2nnc(C(F)(F)F)o2)cc1F)c1ccc(C(F)(F)F)cc1 [Compound 11220, N-(2-fluoro-4-(5-(trifluoromethyl)-1,3,4-oxadiazol-2-yl)benzyl)-N-(4-(trifluoromethyl)phenyl)methanesulfonamide]	26200 nM	845 fold	31 nM
Cc1cccc(N(Cc2ccc(-c3nnc(C(F)F)o3)cn2)S(=O)(=O)C2CCN(C3CCC(F)(F)CC3)CC2)c1 [Compound 11687, 1-(4,4-difluorocyclohexyl)-N-((5-(5-(difluoromethyl)-1,3,4-oxadiazol-2-yl)pyridin-2-yl)methyl)-N-(m-tolyl)piperidine-4-sulfonamide]	79100 nM	741 fold	107 nM
O=S(=O)(C1CCN(C2COC2)CC1)N(Cc1ccc(-c2nnc(C(F)F)o2)cn1)c1ccc(F)c(Cl)c1 [Compound 11501, N-(3-chloro-4-fluorophenyl)-N-((5-(5-(difluoromethyl)-1,3,4-oxadiazol-2-yl)pyridin-2-yl)methyl)-1-(oxetan-3-yl)piperidine-4-sulfonamide]	56700 nM	3779 fold	15 nM
O=S(=O)(C1CCN(C2CCC2)CC1)N(Cc1ccc(-c2nnc(C(F)F)o2)cn1)c1ccccc1 [Compound 11794, 1-cyclobutyl-N-((5-(5-(difluoromethyl)-1,3,4-oxadiazol-2-yl)pyridin-2-yl)methyl)-N-phenylpiperidine-4-sulfonamide]	–	2192 fold	45.6 nM
O=S(=O)(CCN(Cc1ccccc1)Cc1ccccc1)N(Cc1ccc(-c2nnc(C(F)F)o2)cc1)c1ccccc1 [Compound 11796, 2-(dibenzylamino)-N-(4-(5-(difluoromethyl)-1,3,4-oxadiazol-2-yl)benzyl)-N-phenylethane-1-sulfonamide]	–	56 fold	1780 nM
CS(=O)(=O)N(Cc1ccc(-c2nnc(C(F)F)o2)cn1)C1CCCCC1 [Compound 11351, N-cyclohexyl-N-((5-(5-(difluoromethyl)-1,3,4-oxadiazol-2-yl)pyridin-2-yl)methyl)methanesulfonamide]	–	1449 fold	69 nM
O=S(=O)(C1CCN(C2COC2)CC1)N(Cc1ccc(-c2nnc(C(F)F)o2)cc1F)c1ccccc1 [Compound 11625, N-(4-(5-(difluoromethyl)-1,3,4-oxadiazol-2-yl)-2-fluorobenzyl)-1-(oxetan-3-yl)-N-phenylpiperidine-4-sulfonamide]	–	719 fold	139 nM
CN(C)[C@@H]1CCN(CCS(=O)(=O)N(Cc2ccc(-c3nnc(C(F)F)o3)cc2)c2ccccc2)C1 [Compound 11754, (R)—N-(4-(5-(difluoromethyl)-1,3,4-oxadiazol-2-yl)benzyl)-2-(3-(dimethylamino)pyrrolidin-1-yl)-N-phenylethane-1-sulfonamide]	–	1420 fold	70.4 nM

Source: patent US10538498B2, “1,3,4-oxadiazole sulfonamide derivative compounds as histone deacetylase 6 inhibitor, and the pharmaceutical composition comprising the same” (Chong Kun Dang Pharmaceutical Corp., priority 2015, dated 2020)
